Tested on: patients with inadequately managed, severe chronic low back pain with or without a neuropathic pain component
Experiment: Hospital Anxiety and Depression Scale (HADS) depression score; open-label phase IIIb trial, tapentadol prolonged release 50-250 mg bid for up to 12 weeks
Type: in vivo, human patients
Conditions: for HADS depression score, course: Baseline to Week 12
Method: As used herein, the “depression score” is a value determining the degree of the depression. The scale of depression scores covers the range from 0 to 21, wherein the degree of the depression is high in case of high values and low in case of low values. In a group of tested subjects, typically the mean or mediate values of depression scores are determined. The mean value is the sum of all depression scores divided by the number of subjects. The mediate value is the middle depression score in the set of determined scores. Preferably, the “depression score” is defined as in the experimental section.
A subgroup suffering from neuropathic pain due to lumbar radiculopathy was also investigated.
This was a multicenter, multinational, open-label, effectiveness phase IIIb trial to evaluate effectiveness and safety of tapentadol prolonged release treatment in patients with inadequately managed, severe chronic low back pain with or without a neuropathic pain component. Patients taking WHO Step II analgesics discontinued those analgesics before starting study medication; patients taking Step I analgesics and/or centrally acting co-analgesics continued on the same dose. […] All patients received tapentadol prolonged release (50-250 mg bid) for up to 12 weeks (5-week titration period and a 7-week maintenance period). Tapentadol immediate release (IR) 50 mg (twice a day, hours apart) was permitted (combined total daily dose of tapentadol prolonged release and tapentadol IR, 500 mg/day). The primary efficacy endpoint was the change from Baseline to Week 6 (when tapentadol prolonged release doses were stable) in average pain intensity on the 11-point NRS-3 using the last observation carried forward (LOCF) for imputing missing scores. The painDETECT questionnaire was used to evaluate the likelihood of a neuropathic pain component of low back pain; patients were classified as painDETECT “negative,” “unclear,” or “positive.” The population of patients classified as painDETECT negative was limited to approximately 30% of the total population.
In the painDETECT positive trial population the “diagnosis of lumbar radiculopathy” was evaluated which was defined per study protocol according following criteria: • typical dermatomal pain (radiating beyond the knee towards the foot, pain evoked by stretching within distribution of the ischiadic/femoral nerve) • signs of root dysfunction: • such as sensory impairment, motor symptoms from compression of lumbar nerve root (L4, L5, S1). • and/or absent or diminished quadriceps femoris or triceps surae reflexes. • and/or quantitative sensory testing (QST) deficit and pain distribution present in the same dermatomal area.
All subjects completed Short Form-36 (SF-36) and EuroQol-5 Dimension (EQ-5D) questionnaires and the Hospital Anxiety and Depression Scale (HADS). The Patient Global Impression of Change (PGIC) and Clinical global impression of change (CGIC) were also used as secondary endpoints. For both tests, patients completed the statement, “since I began trial treatment, I would rate my overall condition as,” using 7 possible responses (“very much worse” to “very much improved”). Adverse events were recorded throughout the trial.
In the following • (i) N is the number of subjects of the specified diagnosis group, • (ii) n is the number of subjects with data available, • (iii) “Mean” is the mean score of the subjects, i.e. the sum of all scores is divided by the number of subjects, • (iv) SD is the standard deviation, • (v) “Median” is the median score of the subjects, i.e. the middle score in the set of scores, • (vi) “Range” is the range of scores of the subjects, i.e. the range defined by the lowest and the highest score of the set of scores. First, the depression scores are presented. The total number of subjects in the clinical study: N=175

[1] = Visit 1, defined neuropathic pain N=85
[2] = Visit 1, positive diagnosis of lumbar radiculopathy-neuropathic pain subset N=44
[3] = Visit 1, presumed neuropathic pain component N=41
[4] = Visit 1, presumed or defined neuropathic pain component N=126
[5] = Visit 1, subjects with nociceptive pain N=49
[6] = Visit 5, defined neuropathic pain N=85
[7] = Visit 5, positive diagnosis of lumbar radiculopathy-neuropathic pain subset N=44
[8] = Visit 5, presumed neuropathic pain component N=41
[9] = Visit 5, presumed or defined neuropathic pain component N=126
[10] = Visit 5, subjects with nociceptive pain N=49
[11] = Visit 6, defined neuropathic pain N=85
[12] = Visit 6, positive diagnosis of lumbar radiculopathy-neuropathic pain subset N=44
[13] = Visit 6, presumed neuropathic pain component N=41
[14] = Visit 6, presumed or defined neuropathic
[15] = Visit 6, presumed or defined neuropathic pain component N=126
[16] = Visit 6, subjects with nociceptive pain N=49
[17] = Visit 7, defined neuropathic pain N=85
[18] = Visit 7, positive diagnosis of lumbar radiculopathy-neuropathic pain subset N=44
[19] = Visit 7, presumed neuropathic pain component N=41
[20] = Visit 7, presumed or defined neuropathic pain component N=126
[21] = Visit 7, subjects with nociceptive pain N=49
[22] = Visit 8, defined neuropathic pain N=85

CC[C@@H](c1cccc(O)c1)[C@@H](C)CN(C)C [tapentadol, (−)-(1R,2R)-3-(3-dimethylamino-1-ethyl-2-methyl-propyl)-phenol]
HADS depression score, course (painDETECT negative): not significantly
HADS depression score, course (painDETECT unclear/positive, P<0.0001 at Visit 12): improved steadily
HADS depression score, course (positive diagnosis of lumbar radiculopathy-neuropathic pain subset, 0.0023 at Visit 12): improved steadily
Depression score Mean (SD) [1]: 8.3 (4.51)
Depression score Median [1]: 8.0
Depression score Mean (SD) [2]: 7.5 (3.69)
Depression score Median [2]: 7.5
Depression score Mean (SD) [3]: 8.8 (4.59)
Depression score Median [3]: 8.5
Depression score Mean (SD) [4]: 8.5 (4.52)
Depression score Median [4]: 8.0
Depression score Mean (SD) [5]: 6.1 (3.90)
Depression score Median [5]: 5.0
Depression score Mean (SD) (Visit 1, total subjects N=175): 7.8 (4.47)
Depression score Median (Visit 1, total subjects N=175): 7.0
Depression score Mean (SD) [6]: 7.3 (4.29)
Depression score Median [6]: 7.0
Depression score Mean (SD) [7]: 6.7 (3.77)
Depression score Median [7]: 6.0
Depression score Mean (SD) [8]: 7.5 (4.59)
Depression score Median [8]: 7.0
Depression score Mean (SD) [9]: 7.4 (4.37)
Depression score Median [9]: 7.0
Depression score Mean (SD) [10]: 5.6 (3.68)
Depression score Median [10]: 5.0
Depression score Mean (SD) (Visit 5, total subjects N=175): 6.9 (4.26)
Depression score Median (Visit 5, total subjects N=175): 6.0
Depression score change from baseline Mean (SD) (Visit 6): −0.4 (3.55)
Depression score change from baseline Median (Visit 6): −0.0
Depression score change from baseline Mean (SD) (Visit 6, defined neuropathic): −1.7 (3.43)
Depression score change from baseline Median (Visit 6, defined neuropathic): −2.0
Depression score Mean (SD) [11]: 6.8 (4.41)
Depression score Median [11]: 6.0
Depression score change from baseline Mean (SD) (Visit 6, lumbar radiculopathy): −1.7 (3.23)
Depression score change from baseline Median (Visit 6, lumbar radiculopathy): −1.0
Depression score change from baseline Mean (SD) (Visit 6, nociceptive): −1.0 (3.15)
Depression score change from baseline Median (Visit 6, nociceptive): −1.0
Depression score Mean (SD) [12]: 6.3 (3.67)
Depression score Median [12]: 6.0
Depression score Mean (SD) [13]: 7.5 (4.60)
Depression score Median [13]: 7.5
Depression score change from baseline Mean (SD) [14]: −1.3 (3.50)
Depression score change from baseline Median [14]: −1.0
Depression score Mean (SD) [15]: 7.1 (4.46)
Depression score Median [15]: 7.0
Depression score Mean (SD) [16]: 5.3 (4.03)
Depression score Median [16]: 4.0
Depression score change from baseline Mean (SD) (Visit 6, total): −1.2 (3.40)
Depression score change from baseline Median (Visit 6, total): −1.0
Depression score Mean (SD) (Visit 6, total subjects N=175): 6.6 (4.41)
Depression score Median (Visit 6, total subjects N=175): 6.0
Depression score Mean (SD) [17]: 6.2 (4.56)
Depression score Median [17]: 6.0
Depression score Mean (SD) [18]: 5.4 (3.85)
Depression score Median [18]: 5.0
Depression score Mean (SD) [19]: 7.0 (4.71)
Depression score Median [19]: 6.5
Depression score Mean (SD) [20]: 6.5 (4.61)
Depression score Median [20]: 6.0
Depression score Mean (SD) [21]: 5.0 (3.63)
Depression score Median [21]: 4.0
Depression score Mean (SD) (Visit 7, total subjects N=175): 6.1 (4.40)
Depression score Median (Visit 7, total subjects N=175): 6.0
Depression score change from baseline Mean (SD) (Visit 8): −1.0 (3.13)
Depression score change from baseline Median (Visit 8): −1.0
Depression score change from baseline Mean (SD) (Visit 8, defined neuropathic): −2.3 (3.33)
Depression score change from baseline Median (Visit 8, defined neuropathic): −1.5
Depression score Mean (SD) [22]: 6.4 (4.28)
Depression score Median [22]: 6.0
Depression score change from baseline Mean (SD) (Visit 8, lumbar radiculopathy): −2.1 (3.54)
Depression score change from baseline Median (Visit 8, lumbar radiculopathy): −1.0
Depression score change from baseline Mean (SD) (Visit 8, nociceptive): −0.8 (2.31)
Depression score change from baseline Median (Visit 8, nociceptive): −1.0
Depression score Mean (SD) (Visit 8, positive diagnosis of lumbar radiculopathy-neuropathic pain subset N=44): 5.8 (3.71)
